The values below come from PubChem BioAssay AID1259407 (Chemical Carcinogenesis Research Information System (CCRIS), 2018).

Calls of active or inactive are those of the source. No rule for the calls is given here.

The series concerns CCRIS mutagenicity, Ames/micronucleus/aberration tests. In words: CCRIS mutagenicity studies.
[1] abbreviates: Test System: AMES SALMONELLA TYPHIMURIUM, Strain/Indicator: TA98, Metabolic Activation: NONE, Method: STANDARD PLATE.
Where [2] appears, read: Test System: AMES SALMONELLA TYPHIMURIUM, Strain/Indicator: TA98, Metabolic Activation: RAT, LIVER, S-9, AROCLOR 1254, Method: STANDARD PLATE.
Where [3] appears, read: Test System: AMES SALMONELLA TYPHIMURIUM, Strain/Indicator: TA100, Metabolic Activation: NONE, Method: STANDARD PLATE.
The mark [4] stands for this setting: Test System: AMES SALMONELLA TYPHIMURIUM, Strain/Indicator: TA100, Metabolic Activation: RAT, LIVER, S-9, AROCLOR 1254, Method: STANDARD PLATE.
[5] abbreviates: Test System: AMES SALMONELLA TYPHIMURIUM, Strain/Indicator: TA98, Metabolic Activation: NONE, Method: PREINCUBATION
The mark [6] stands for this setting: Test System: AMES SALMONELLA TYPHIMURIUM, Strain/Indicator: TA100, Metabolic Activation: NONE, Method: PREINCUBATION

In the case of `ClCCCCl`, the mutagenic call was “inactive; negative” (Test System: AMES SALMONELLA TYPHIMURIUM, Strain/Indicator: GSTT1, Metabolic Activation: RAT, LIVER, S-9, AROCLOR 1254, Method: STANDARD PLATE); “inactive; negative” (Test System: AMES SALMONELLA TYPHIMURIUM, Strain/Indicator: RSJ100, Metabolic Activation: NONE, Method: STANDARD PLATE); “inactive; negative” under setting [1]; “inactive; negative” under setting [2]; “inactive; negative” under setting [3]; “inactive; negative” under setting [4]. In addition, the mutagenic call by setting is: (Test System: AMES SALMONELLA TYPHIMURIUM, Strain/Indicator: TA104, Metabolic Activation: NONE, Method: STANDARD PLATE) “inactive; negative”; (Test System: AMES SALMONELLA TYPHIMURIUM, Strain/Indicator: TA104, Metabolic Activation: RAT, LIVER, S-9, AROCLOR 1254, Method: STANDARD PLATE) “inactive; negative”; (Test System: AMES SALMONELLA TYPHIMURIUM, Strain/Indicator: TA1535, Metabolic Activation: NONE, Method: STANDARD PLATE) “inactive; negative”; (Test System: AMES SALMONELLA TYPHIMURIUM, Strain/Indicator: TA1535, Metabolic Activation: RAT, LIVER, S-9, AROCLOR 1254, Method: STANDARD PLATE) “inactive; negative”.
Consider `CC(=O)OCC(=O)[C@@]1(OC(C)=O)CC[C@H]2[C@@H]3C[C@@H](F)C4=CC(=O)C(Br)=C[C@]4(C)[C@@]3(F)[C@@H](O)C[C@@]21C`, for which the mutagenic call is, setting by setting: (Test System: AMES SALMONELLA TYPHIMURIUM, Strain/Indicator: TA98, Metabolic Activation: NONE) “inactive; negative”; (Test System: AMES SALMONELLA TYPHIMURIUM, Strain/Indicator: TA98, Metabolic Activation: S-9) “inactive; negative”; (Test System: AMES SALMONELLA TYPHIMURIUM, Strain/Indicator: TA100, Metabolic Activation: NONE) “inactive; negative”; (Test System: AMES SALMONELLA TYPHIMURIUM, Strain/Indicator: TA100, Metabolic Activation: S-9) “inactive; negative”; (Test System: AMES SALMONELLA TYPHIMURIUM, Strain/Indicator: TA1535, Metabolic Activation: NONE) “inactive; negative”; (Test System: AMES SALMONELLA TYPHIMURIUM, Strain/Indicator: TA1535, Metabolic Activation: S-9) “inactive; negative”. Moreover, the mutagenic call is “inactive; negative” (Test System: AMES SALMONELLA TYPHIMURIUM, Strain/Indicator: TA1537, Metabolic Activation: NONE); “inactive; negative” (Test System: AMES SALMONELLA TYPHIMURIUM, Strain/Indicator: TA1537, Metabolic Activation: S-9); “inactive; negative” (Test System: AMES SALMONELLA TYPHIMURIUM, Strain/Indicator: TA1538, Metabolic Activation: NONE); “inactive; negative” (Test System: E. COLI, Strain/Indicator: WP2, Metabolic Activation: NONE); “inactive; negative” (Test System: E. COLI, Strain/Indicator: WP2, Metabolic Activation: S-9); “inactive; negative” (Test System: E. COLI, Strain/Indicator: WP2 UVRA, Metabolic Activation: NONE). Besides, the mutagenic call (Test System: E. COLI, Strain/Indicator: WP2 UVRA, Metabolic Activation: S-9) is “inactive; negative”.
On to `COc1cc2c(c3oc4cccc(O)c4c(=O)c13)[C@@H]1CCO[C@@H]1O2`, for which the mutagenic call is “inactive; negative” (Test System: AMES SALMONELLA TYPHIMURIUM, Strain/Indicator: TA98, Metabolic Activation: RAT, LIVER, S-9, PHENOBARBITAL, Method: STANDARD PLATE) and “inactive; negative” (Test System: AMES SALMONELLA TYPHIMURIUM, Strain/Indicator: TA100, Metabolic Activation: RAT, LIVER, S-9, PHENOBARBITAL, Method: STANDARD PLATE).
As for `Cc1c(/C=N/OCc2ccc(Cl)cc2Cl)c2cc([N+](=O)[O-])ccc2n1Cc1ccc(Cl)cc1`, the mutagenic call runs as follows: under setting [1], “inactive; negative”; (Test System: AMES SALMONELLA TYPHIMURIUM, Strain/Indicator: TA98, Metabolic Activation: RAT, LIVER, S-9, PHENOBARBITAL AND BETA-NAPHTHOFLAVONE, Method: STANDARD PLATE) “inactive; negative”; under setting [3], “inactive; negative”; (Test System: AMES SALMONELLA TYPHIMURIUM, Strain/Indicator: TA100, Metabolic Activation: RAT, LIVER, S-9, PHENOBARBITAL AND BETA-NAPHTHOFLAVONE, Method: STANDARD PLATE) “inactive; negative”.
For `OCC(Cl)(Cl)Cl`, the mutagenic call runs as follows: (Test System: AMES SALMONELLA TYPHIMURIUM, Strain/Indicator: TA100, Metabolic Activation: NONE, Method: BAG VAPORIZATION) “inactive; negative”; (Test System: AMES SALMONELLA TYPHIMURIUM, Strain/Indicator: TA100, Metabolic Activation: RAT, LIVER, S-9, AROCLOR 1254, Method: BAG VAPORIZATION) “inactive; negative”.
Regarding `O=S(=O)(O)c1ccc(O)c2ncccc12`, the mutagenic call runs as follows: under setting [5], “inactive; negative”; (Test System: AMES SALMONELLA TYPHIMURIUM, Strain/Indicator: TA98, Metabolic Activation: RAT, LIVER, S-9, Method: PREINCUBATION) “active; positive”; under setting [6], “inactive; negative”; (Test System: AMES SALMONELLA TYPHIMURIUM, Strain/Indicator: TA100, Metabolic Activation: RAT, LIVER, S-9, Method: PREINCUBATION) “active; positive”.
In the case of `Cc1cc(-c2ccc(N=C=O)c(C)c2)ccc1N=C=O`, the mutagenic call was “active; positive (structural changes)” (End Point: IN VITRO CHROMOSOMAL ABERRATIONS, Test System: CHL CELLS, Metabolic Activation: RAT, LIVER, S-9, SODIUM PHENOBARBITAL AND 5,6-BENZOFLAVONE); “inactive; negative” under setting [5]; “active; positive” (Test System: AMES SALMONELLA TYPHIMURIUM, Strain/Indicator: TA98, Metabolic Activation: RAT LIVER S-9, PHENOBARBITAL AND BETA-NAPHTHOFLAVONE, Method: PREINCUBATION); “inactive; negative” under setting [6]; “inactive; negative” (Test System: AMES SALMONELLA TYPHIMURIUM, Strain/Indicator: TA100, Metabolic Activation: RAT LIVER S-9, PHENOBARBITAL AND BETA-NAPHTHOFLAVONE, Method: PREINCUBATION); “inactive; negative” (Test System: AMES SALMONELLA TYPHIMURIUM, Strain/Indicator: TA1535, Metabolic Activation: NONE, Method: PREINCUBATION). Also, the mutagenic call was “inactive; negative” (Test System: AMES SALMONELLA TYPHIMURIUM, Strain/Indicator: TA1535, Metabolic Activation: RAT LIVER S-9, PHENOBARBITAL AND BETA-NAPHTHOFLAVONE, Method: PREINCUBATION); “inactive; negative” (Test System: AMES SALMONELLA TYPHIMURIUM, Strain/Indicator: TA1537, Metabolic Activation: NONE, Method: PREINCUBATION); “inactive; negative” (Test System: AMES SALMONELLA TYPHIMURIUM, Strain/Indicator: TA1537, Metabolic Activation: RAT LIVER S-9, PHENOBARBITAL AND BETA-NAPHTHOFLAVONE, Method: PREINCUBATION); “inactive; negative” (Test System: AMES SALMONELLA TYPHIMURIUM, Strain/Indicator: TA1538, Metabolic Activation: NONE, Method: PREINCUBATION); “active; positive” (Test System: AMES SALMONELLA TYPHIMURIUM, Strain/Indicator: TA1538, Metabolic Activation: RAT LIVER S-9, PHENOBARBITAL AND BETA-NAPHTHOFLAVONE, Method: PREINCUBATION); “inactive; negative” (Test System: E.COLI, Strain/Indicator: WP2UVRA, Metabolic Activation: NONE, Method: PREINCUBATION). Also, the mutagenic call (Test System: E.COLI, Strain/Indicator: WP2UVRA, Metabolic Activation: RAT LIVER S-9, PHENOBARBITAL AND BETA-NAPHTHOFLAVONE, Method: PREINCUBATION) is “inactive; negative”.
Take `CC(=O)Oc1ccc2c(c1)C1(C)OOC1(C)O2` (configuration not stated): the mutagenic call under setting [6] is “active; positive”.
As for `COC(=O)Nc1nc2ccc(Sc3ccccc3)cc2[nH]1`, the mutagenic call is, setting by setting: (Test System: AMES SALMONELLA TYPHIMURIUM, Strain/Indicator: TA97, Metabolic Activation: NONE, Method: STANDARD PLATE) “inactive; negative”; (Test System: AMES SALMONELLA TYPHIMURIUM, Strain/Indicator: TA97, Metabolic Activation: RAT, LIVER, S-9, AROCLOR 1254, Method: STANDARD PLATE) “inactive; negative”; under setting [1], “inactive; negative”; under setting [2], “inactive; negative”; under setting [3], “inactive; negative”; under setting [4], “inactive; negative”. Moreover, the mutagenic call (Test System: AMES SALMONELLA TYPHIMURIUM, Strain/Indicator: TA102, Metabolic Activation: NONE, Method: STANDARD PLATE) is “inactive; negative” and the mutagenic call (Test System: AMES SALMONELLA TYPHIMURIUM, Strain/Indicator: TA102, Metabolic Activation: RAT, LIVER, S-9, AROCLOR 1254, Method: STANDARD PLATE) is “inactive; negative”.
